Experimental data reported in patent US20120108585A1, “BENZOXAZOLES, BENZTHIAZOLES AND RELATED ANALOGS AS SIRTUIN MODULATORS” (Sirtris Pharmaceuticals, Inc., priority 2008, published 2012).

Target: T1, SIRT1 (Homo sapiens, UniProt Q96EB6)
T1 sequence (Q96EB6 1-747): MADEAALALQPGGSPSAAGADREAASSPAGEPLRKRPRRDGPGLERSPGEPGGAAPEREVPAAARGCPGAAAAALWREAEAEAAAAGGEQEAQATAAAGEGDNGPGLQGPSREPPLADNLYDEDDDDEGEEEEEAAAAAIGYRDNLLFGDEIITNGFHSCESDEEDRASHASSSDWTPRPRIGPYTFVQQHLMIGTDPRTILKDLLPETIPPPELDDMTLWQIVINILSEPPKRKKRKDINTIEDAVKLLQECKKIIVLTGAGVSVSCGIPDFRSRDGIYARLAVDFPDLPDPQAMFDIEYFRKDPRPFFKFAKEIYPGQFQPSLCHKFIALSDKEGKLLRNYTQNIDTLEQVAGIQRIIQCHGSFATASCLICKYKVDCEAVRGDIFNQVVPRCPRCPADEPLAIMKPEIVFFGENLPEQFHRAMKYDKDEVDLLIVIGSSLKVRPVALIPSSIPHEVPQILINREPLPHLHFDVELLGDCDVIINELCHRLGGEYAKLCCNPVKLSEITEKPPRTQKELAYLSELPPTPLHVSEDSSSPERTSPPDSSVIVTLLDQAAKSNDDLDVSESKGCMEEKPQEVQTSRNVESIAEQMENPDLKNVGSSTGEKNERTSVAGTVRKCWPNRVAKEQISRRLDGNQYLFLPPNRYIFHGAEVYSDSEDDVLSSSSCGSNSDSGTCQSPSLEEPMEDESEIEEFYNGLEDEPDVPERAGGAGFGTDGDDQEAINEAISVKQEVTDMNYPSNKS
Assay: mass spectrometry based assay to identify modulators of SIRT1 activity (deacetylation of p53-based acetylated peptide)
Assay type: biochemical
Conditions: SIRT1 activation, 10 nM SIRT1, 0.5 μM peptide substrate, 120 μM βNAD+, 25 minutes at 25° C.; for Emax: 25 min, read-out: % Fold Act. (percent maximum fold activation)
Excerpt: A mass spectrometry based assay was used to identify modulators of SIRT1 activity. The mass spectrometry based assay utilizes a peptide having 20 amino acid residues as follows: Ac-EE-K(biotin)-GQSTSSHSK(Ac)NleSTEG-K(5TMR)-EE-NH2 (SEQ ID NO: 1) wherein K(Ac) is an acetylated lysine residue and Nle is a norleucine. The peptide is labeled with the fluorophore 5TMR (excitation 540 nm/emission 580 nm) at the C-terminus. The sequence of the peptide substrate is based on p53 with several modifications. In addition, the methionine residue naturally present in the sequence was replaced with the norleucine because the methionine may be susceptible to oxidation during synthesis and purification.
The mass spectrometry assay is conducted as follows: 0.5 μM peptide substrate and 120 μM βNAD^+ is incubated with 10 nM SIRT1 for 25 minutes at 25° C. in a reaction buffer (50 mM Tris-acetate pH 8, 137 mM NaCl, 2.7 mM KCl, 1 mM MgCl2, 5 mM DTT, 0.05% BSA). Test compounds may be added to the reaction as described above. The SirT1 gene is cloned into a T7-promoter containing vector and transformed into BL21(DE3). After the 25 minute incubation with SIRT1, 10 μL of 10% formic acid is added to stop the reaction. Reactions are sealed and frozen for later mass spec analysis. Determination of the mass of the substrate peptide allows for precise determination of the degree of acetylation (i.e. starting material) as compared to deacetylated peptide (product).
A control for inhibition of sirtuin activity is conducted by adding 1 μL of 500 mM nicotinamide as a negative control at the start of the reaction (e.g., permits determination of maximum sirtuin inhibition). A control for activation of sirtuin activity is conducted using 10 nM of sirtuin protein, with 1 μL of DMSO in place of compound, to determine the amount of deacetylation of the substrate at a given timepoint within the linear range of the assay. This timepoint is the same as that used for test compounds and, within the linear range, the endpoint represents a change in velocity.
For the above assay, SIRT1 protein was expressed and purified as follows. The SirT1 gene was cloned into a T7-promoter containing vector and transformed into BL21(DE3). The protein was expressed by induction with 1 mM IPTG as an N-terminal His-tag fusion protein at 18° C. overnight and harvested at 30,000×g. Cells were lysed with lysozyme in lysis buffer (50 mM Tris-HCl, 2 mM Tris[2-carboxyethyl]phosphine (TCEP), 10 μM ZnCl2, 200 mM NaCl) and further treated with sonication for 10 min for complete lysis. The protein was purified over a Ni-NTA column (Amersham) and fractions containing pure protein were pooled, concentrated and run over a sizing column (Sephadex S200 26/60 global). The peak containing soluble protein was collected and run on an Ion-exchange column (MonoQ). Gradient elution (200 mM-500 mM NaCl) yielded pure protein. This protein was concentrated and dialyzed against dialysis buffer (20 mM Tris-HCl, 2 mM TCEP) overnight. The protein was aliquoted and frozen at −80° C. until further use.
Sirtuin modulating compounds that activated SIRT1 were identified using the assay described above and are shown below in Table 1. The EC1-5 values for the activating compounds are represented by A (EC1-5<1.0 uM), B (EC1-5 1-25 uM), C (EC1-5>25 uM). The percent maximum fold activation is represented by A (Fold activation>150%) or B (Fold Activation<150%).

Emax [%]	EC1.5	Structure (SMILES)
< 150	C (EC1-5>25 uM)	O=C(Nc1cccc2oc(-c3ccccc3)nc12)c1cscn1 [Compound 100]
< 150	C (EC1-5>25 uM)	O=C(Nc1cccc2oc(-c3ccccc3)nc12)c1cnccn1 [Compound 101]
< 150	C (EC1-5>25 uM)	O=C(Nc1cccc2oc(-c3cccc(C(F)(F)F)c3)nc12)c1cscn1 [Compound 102]
< 150	C (EC1-5>25 uM)	O=C(Nc1cccc2oc(-c3cccc(C(F)(F)F)c3)nc12)c1cnccn1 [Compound 103]
< 150	C (EC1-5>25 uM)	O=C(Nc1cccc2oc(-c3cccc(OC(F)(F)F)c3)nc12)c1cscn1 [Compound 104, N-(2-(3-(trifluoromethoxy)phenyl)benzo[d]oxazol-4-yl)thiazole-4-carboxamide]
< 150	C (EC1-5>25 uM)	O=C(Nc1cccc2oc(-c3cccc(OC(F)(F)F)c3)nc12)c1cnccn1 [Compound 105]
< 150	C (EC1-5>25 uM)	O=C(Nc1nccs1)c1cccc2nc(-c3cccc(C(F)(F)F)c3)oc12 [Compound 106]
< 150	C (EC1-5>25 uM)	O=C(Nc1ccccn1)c1cccc2nc(-c3cccc(C(F)(F)F)c3)oc12 [Compound 107]
> 150	B (EC1-5 1-25 uM)	O=C(Nc1cccnc1)c1cccc2nc(-c3cccc(C(F)(F)F)c3)oc12 [Compound 108]
< 150	C (EC1-5>25 uM)	O=C(Nc1nccs1)c1ccnc2sc(-c3cccc(C(F)(F)F)c3)nc12 [Compound 109]
< 150	C (EC1-5>25 uM)	O=C(Nc1ccccn1)c1ccnc2sc(-c3cccc(C(F)(F)F)c3)nc12 [Compound 110]
< 150	C (EC1-5>25 uM)	O=C(Nc1nccs1)c1cccc2sc(-c3cccc(C(F)(F)F)c3)nc12 [Compound 111]
< 150	C (EC1-5>25 uM)	O=C(Nc1ccccn1)c1cccc2sc(-c3cccc(C(F)(F)F)c3)nc12 [Compound 112]
< 150	C (EC1-5>25 uM)	O=C(Nc1cccnc1)c1cccc2sc(-c3cccc(C(F)(F)F)c3)nc12 [Compound 113]
< 150	C (EC1-5>25 uM)	O=C(Nc1nccs1)c1cccc2sc(-c3cccc(OC(F)(F)F)c3)nc12 [Compound 114]
< 150	C (EC1-5>25 uM)	O=C(Nc1ccccn1)c1cccc2sc(-c3cccc(OC(F)(F)F)c3)nc12 [Compound 115]
< 150	C (EC1-5>25 uM)	O=C(Nc1cccnc1)c1cccc2sc(-c3cccc(OC(F)(F)F)c3)nc12 [Compound 116]
< 150	B (EC1-5 1-25 uM)	O=C(Nc1nccs1)c1cccc2nc(-c3ccccc3OC(F)(F)F)oc12 [Compound 117]
> 150	B (EC1-5 1-25 uM)	O=C(Nc1ccccn1)c1cccc2nc(-c3ccccc3OC(F)(F)F)oc12 [Compound 118]
> 150	B (EC1-5 1-25 uM)	O=C(Nc1nc(CN2CCOCC2)cs1)c1cccc2nc(-c3ccccc3OC(F)(F)F)oc12 [Compound 119]

Emax [%]	EC1.5	Structure (SMILES)
> 150	A (EC1-5<1.0 uM)	O=C(Nc1cccc(CN2CCOCC2)n1)c1cccc2nc(-c3ccccc3OC(F)(F)F)oc12 [Compound 120]
> 150	B (EC1-5 1-25 uM)	O=C(Nc1nccs1)c1cccc2nc(-c3ccccc3C(F)(F)F)oc12 [Compound 121]
> 150	B (EC1-5 1-25 uM)	O=C(Nc1ccccn1)c1cccc2nc(-c3ccccc3C(F)(F)F)oc12 [Compound 122]
> 150	B (EC1-5 1-25 uM)	O=C(Nc1nc(CN2CCOCC2)cs1)c1cccc2nc(-c3ccccc3C(F)(F)F)oc12 [Compound 123]
> 150	A (EC1-5<1.0 uM)	O=C(Nc1cccc(CN2CCOCC2)n1)c1cccc2nc(-c3ccccc3C(F)(F)F)oc12 [Compound 124]
< 150	C (EC1-5>25 uM)	O=C(Nc1nccs1)c1cccc2sc(-c3cccc(N4CCOCC4)c3)nc12 [Compound 125]
< 150	C (EC1-5>25 uM)	O=C(Nc1ccccn1)c1cccc2sc(-c3cccc(N4CCOCC4)c3)nc12 [Compound 126]
< 150	C (EC1-5>25 uM)	O=C(Nc1cccnc1)c1cccc2sc(-c3cccc(N4CCOCC4)c3)nc12 [Compound 127]
< 150	C (EC1-5>25 uM)	O=C(Nc1nccs1)c1cccc2sc(-c3cccnc3)nc12 [Compound 128]
< 150	C (EC1-5>25 uM)	O=C(Nc1ccccn1)c1cccc2sc(-c3cccnc3)nc12 [Compound 129]
< 150	B (EC1-5 1-25 uM)	O=C(Nc1nccs1)c1cccc2nc(-c3ccc(F)cc3C(F)(F)F)oc12 [Compound 130]
> 150	B (EC1-5 1-25 uM)	O=C(Nc1ccccn1)c1cccc2nc(-c3ccc(F)cc3C(F)(F)F)oc12 [Compound 131]
> 150	B (EC1-5 1-25 uM)	O=C(Nc1nc(CN2CCOCC2)cs1)c1cccc2nc(-c3ccc(F)cc3C(F)(F)F)oc12 [Compound 132]
> 150	B (EC1-5 1-25 uM)	O=C(Nc1cccc(CN2CCOCC2)n1)c1cccc2nc(-c3ccc(F)cc3C(F)(F)F)oc12 [Compound 133]
< 150	B (EC1-5 1-25 uM)	O=C(Nc1ccccn1)c1cccc2nc(-c3cc(F)ccc3C(F)(F)F)oc12 [Compound 134]
> 150	B (EC1-5 1-25 uM)	O=C(Nc1nc(CN2CCOCC2)cs1)c1cccc2nc(-c3cc(F)ccc3C(F)(F)F)oc12 [Compound 135]
> 150	B (EC1-5 1-25 uM)	O=C(Nc1cccc(CN2CCOCC2)n1)c1cccc2nc(-c3cc(F)ccc3C(F)(F)F)oc12 [Compound 136]
> 150	B (EC1-5 1-25 uM)	O=C(Nc1nccs1)c1cccc2oc(-c3ccccc3C(F)(F)F)nc12 [Compound 137, N-(thiazol-2-yl)-2-(2-(trifluoromethyl)phenyl)benzo[d]oxazole-4-carboxamide]
> 150	B (EC1-5 1-25 uM)	O=C(Nc1ccccn1)c1cccc2oc(-c3ccccc3C(F)(F)F)nc12 [Compound 138]
> 150	A (EC1-5<1.0 uM)	O=C(Nc1nc(CN2CCOCC2)cs1)c1cccc2oc(-c3ccccc3C(F)(F)F)nc12 [Compound 139]
